Molecules are shown by their SMILES.

The results in this text go back to US20080267948A1, “Croos-B Structure Binding Compounds” (priority 2005, published 2008).

The target in the experiment is tPA (Homo sapiens, UniProt P00750). In words: tPA serine protease activity with OVA heated in the presence of compounds (substrate S-2765). The experiment is classed as biochemical. The arrangement: purchased Boehringer Ingelheim Actilyse. The note with it: OVA heated with 1 mg/ml compound, 80-, 160- or 320-fold diluted, 100 nM tPA. The protocol: For this purpose, the influence of the compounds on heat-denaturation of OVA was analyzed (see above: Thioflavin T fluorescence measurements). Heated OVA at 1 mg/ml in PBS in the presence or absence of 1 mg/ml of the twelve compounds listed in Table 7 in PBS/DMSO (final DMSO concentration 1%) was used 80-fold or 160-fold or 320-fold diluted (final heated OVA concentration and compound concentration was 12.5 or 6.3 or 3.1 μg/ml; final DMSO concentration was 0.013% and 0.006% and 0.003%).
Chain of tPA (P00750 36-562): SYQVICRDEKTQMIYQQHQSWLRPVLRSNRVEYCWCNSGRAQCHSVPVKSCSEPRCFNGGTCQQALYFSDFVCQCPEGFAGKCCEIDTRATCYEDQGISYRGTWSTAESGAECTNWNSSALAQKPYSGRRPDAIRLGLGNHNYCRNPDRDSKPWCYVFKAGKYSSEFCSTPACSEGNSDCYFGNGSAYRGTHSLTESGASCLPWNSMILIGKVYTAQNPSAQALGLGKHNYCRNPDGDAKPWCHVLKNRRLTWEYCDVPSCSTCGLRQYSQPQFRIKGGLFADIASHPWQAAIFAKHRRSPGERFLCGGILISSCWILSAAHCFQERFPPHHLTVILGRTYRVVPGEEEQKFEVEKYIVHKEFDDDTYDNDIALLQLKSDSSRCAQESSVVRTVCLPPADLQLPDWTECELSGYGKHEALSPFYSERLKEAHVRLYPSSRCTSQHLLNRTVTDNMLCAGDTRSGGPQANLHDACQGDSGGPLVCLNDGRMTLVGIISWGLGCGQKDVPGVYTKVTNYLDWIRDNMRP

For the compound `O=c1oc2c(O)c(O)cc3c(=O)oc4c(O)c(O)cc1c4c23` [compound 117, Ellagic acid hydrate], the “influence on tPA protease activity of OVA heated in the presence of compound” value is “Potentiation of tPA protease activity”.
